Molecular target: T1, NostocER1 (Nostoc sp. PCC 7120 = FACHB-418, UniProt A0ACD6B956)
T1 construct: gene all1865; full-length gene, pET28a(+) based vector (NcoI/BamHI), co-expressed with M. vaccae FDH in E. coli BL21(DE3)
Assay: whole-cell biotransformation, chiral GC-FID
Format: cell-based
Conditions: E. coli BL21(DE3) whole cells with FDH; 300 mM (R)-carvone, 450 mM formate, 0.1 mM NAD+, XAD4 resin, pH 7.0, 25 °C; product (2R,5R)-dihydrocarvone

T1 sequence (A0ACD6B956 38-402): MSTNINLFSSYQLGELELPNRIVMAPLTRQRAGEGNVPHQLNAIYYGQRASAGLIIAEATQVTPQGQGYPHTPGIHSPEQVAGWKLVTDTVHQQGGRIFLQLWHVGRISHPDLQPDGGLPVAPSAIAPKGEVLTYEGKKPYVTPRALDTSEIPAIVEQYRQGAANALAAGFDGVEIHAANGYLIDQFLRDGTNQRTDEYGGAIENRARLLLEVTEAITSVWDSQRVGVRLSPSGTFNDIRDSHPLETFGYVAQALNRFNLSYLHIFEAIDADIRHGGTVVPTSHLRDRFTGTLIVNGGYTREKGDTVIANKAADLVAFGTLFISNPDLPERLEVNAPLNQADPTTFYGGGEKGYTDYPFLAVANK

Question: `C=C(C)[C@@H]1CC=C(C)C(=O)C1` [compound 1, (R)-carvone] was tested. Which “whole-cell biotransformation, chiral GC-FID” value did it give?
Answer: E. coli cells with the NostocER1 wild type possessed the slowest of all determined product formation rates

Reference: article PMC6681004, “Asymmetric Whole-Cell Bio-Reductions of (R)-Carvone Using Optimized Ene Reductases” (Molecules, 2019)
